Results as given in patent US20250282799A1, “SUBSTITUTED PYRIDO[4,3-d]PYRIMIDINES AS KRAS MODULATORS” (Alterome Therapeutics, Inc., priority 2023, published 2025).

Assays:
[1] = target: KRAS (G12D)/CRAF (Homo sapiens (Human), UniProt P01116, G12D); experiment: TR-FRET biochemical KRAS:CRAF protein:protein interaction assay, KRAS (G12D); assay type: binding; conditions: GMPPNP loaded Biotin-KRAS (G12D), FLAG CRAF RBD; read-out: TR-Fret_PPI KRAS (G12D)/CRAF IC50
Method in brief: (§1)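 Compound (10-point 3-fold series, 1% DMSO final) preincubated 30 min at room temperature with 20 nM biotin-KRAS mutant loaded with GMPPNP, in Hepes pH7.3 buffer with 5 mM MgCl2 and 10 uM GMP-PNP. Then 100 nM FLAG-CRAF RBD for 150 min, 1 nM Tb-anti-FLAG/5 nM SA-XL665 for 90 min; IC50 from normalized 665/620 ratio, 4-parameter fit.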

[2] = target: KRAS (G12V)/CRAF (Homo sapiens (Human), UniProt P01116, G12V); experiment: TR-FRET biochemical KRAS:CRAF protein:protein interaction assay, KRAS (G12V); assay type: binding; conditions: GMPPNP loaded Biotin-KRAS (G12V), FLAG CRAF RBD; read-out: TR-Fret_PPI KRAS (G12V)/CRAF IC50
Method in brief: as §1

[3] = Pharmacokinetic evaluation, single dosing (oral and intravenous) in rats; assay type: in vivo, male Sprague-Dawley rats; set-up: unit not given here; conditions: rat, plasma
Method: Pharmacokinetic profile for test compound was measured by single dosing in male Sprague-Dawley rats. Animal weights were typically over 200 grams, and animals were allowed to acclimate to their new environment for at least 3 days prior to the initiation of any studies. One set of animals was dosed intravenous with test compound, 2 mg/kg in 20% PEG400, 10% HS-15 Solutol, 70% 50 mM citrate buffer (pH 4.0). Intravenous dosing solution concentration was 1.0 mg/mL. Time of blood sampling was 5 minutes, 15 minutes, 30 minutes, 1 hour, 2 hours, 4 hours, 8 hours, and 24 hours following intravenous dosing. Another set of animals was dosed orally with test compound, 30 mg/kg in 20% PEG400, 10% HS-15 Solutol, 70% 50 mM citrate buffer (pH 4.0). Oral dosing solution concentration was 3.0 mg/mL. Time of blood sampling was 15 minutes, 30 minutes, 1 hour, 2 hours, 4 hours, 8 hours, and 24 hours following oral dosing. Blood samples (˜0.2 mL/sample) were collected via jugular vein and placed in tubes containing Heparin-Na. The blood samples in tubes were mixed and then placed on wet ice prior to centrifugation for plasma. The blood samples were centrifuged at 4000 g for 5 minutes at 4° C. to obtain plasma. The obtained plasma was separated and stored frozen at approximately −80° C.
All the plasma samples were analyzed using a Shimadzu (DGU-405) HPLC with an API 6500+MS/MS system following the manufacturer's instructions. All the analytes were detected with positive-mode electrospray ionization (ES+). A standard curve for each test compound was generated and used to measure test compound concentrations in the rat plasma samples. Based on the time course sampling, an area under the curve (AUC) was calculated for the oral group and intravenous group. The percentage of rat bioavailability is calculated based on the equation shown below.
where F is bioavailability, AUCPO is area under curve of oral dosing, AUCIV is area under curve of intravenous dosing, DoseIV is the intravenous dose and DosePO is the oral dose. The oral dosing for the experiments presented in Table 5 was performed at 10 mg/kg unless noted otherwise.

Chain of KRAS (G12V)/CRAF (P01116-2 other isoform, or with tags, fused parts or gaps G12V): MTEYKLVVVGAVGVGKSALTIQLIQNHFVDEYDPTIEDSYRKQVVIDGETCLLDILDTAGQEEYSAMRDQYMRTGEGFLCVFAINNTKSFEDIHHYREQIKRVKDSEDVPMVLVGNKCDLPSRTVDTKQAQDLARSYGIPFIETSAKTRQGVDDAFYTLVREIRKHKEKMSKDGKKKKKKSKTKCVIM
Chain of KRAS (G12D)/CRAF (P01116-2 other isoform, or with tags, fused parts or gaps G12D): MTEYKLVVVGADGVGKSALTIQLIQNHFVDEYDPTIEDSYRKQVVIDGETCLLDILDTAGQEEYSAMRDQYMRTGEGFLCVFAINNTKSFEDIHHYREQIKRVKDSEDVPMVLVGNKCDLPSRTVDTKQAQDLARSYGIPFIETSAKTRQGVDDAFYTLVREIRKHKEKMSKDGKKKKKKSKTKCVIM

## [2H]C([2H])(Oc1nc(N2CCCC[C@H]3[C@H](F)[C@H]32)c2cnc(-c3cc(N)cc4cc(F)c(F)c(C#C)c34)c(F)c2n1)[C@@]12CCCN1C[C@H](F)C2 [Example 16, 5-Ethynyl-6,7-difluoro-4-(8-fluoro-4-((1S,7R,8S)-8-fluoro-2-azabicyclo[5.1.0]octan-2-yl)-2-(((2R,7aS)-2-fluorotetrahydro-1H-pyrrolizin-7a(5H)-yl)methoxy-d2)pyrido[4,3-d]pyrimidin-7-yl)naphthalen-2-amine]
[1]
  IC50: 9.98 nM
[2]
  IC50: 56.7 nM
[3]
  IV (dose 2 mg/kg) (AUC/D) (h*mg/mL): 718
[3]; oral
  PO (dose 10 mg/kg) (AUC/D) (h*mg/mL): 75

## [2H]C([2H])(Oc1nc(N2CCOC[C@H]3[C@H](F)[C@H]32)c2cnc(-c3cc(N)cc4cc(F)c(F)c(C#C)c34)c(F)c2n1)[C@@]12CCCN1C[C@H](F)C2 [Example 28, 5-Ethynyl-6,7-difluoro-4-(8-fluoro-4-((1S,7S,8S)-8-fluoro-5-oxa-2-azabicyclo[5.1.0]octan-2-yl)-2-(((2R,7aS)-2-fluorotetrahydro-1H-pyrrolizin-7a(5H)-yl)methoxy-d2)pyrido[4,3-d]pyrimidin-7-yl)naphthalen-2-amine]
[1]
  IC50: 11.6 nM
[2]
  IC50: 89.7 nM
[3]
  IV (dose 2 mg/kg) (AUC/D) (h*mg/mL): 993
[3]; oral
  PO (dose 10 mg/kg) (AUC/D) (h*mg/mL): 141

## [2H]C([2H])(Oc1nc(N2CCCC[C@H]3[C@H](F)[C@H]32)c2cnc(-c3cc(N)cc4ccc(F)c(C#C)c34)c(F)c2n1)[C@@]12CCCN1C[C@H](F)C2 [Example 82, 5-Ethynyl-6-fluoro-4-(8-fluoro-4-((1S,7R,8S)-8-fluoro-2-azabicyclo[5.1.0]octan-2-yl)-2-(((2R,7aS)-2-fluorotetrahydro-1H-pyrrolizin-7a(5H)-yl)methoxy-d2)pyrido[4,3-d]pyrimidin-7-yl)naphthalen-2-amine]
[1]
  IC50: 8.11 nM
[2]
  IC50: 39.2 nM
[3]
  IV (dose 2 mg/kg) (AUC/D) (h*mg/mL): 490
[3]; oral
  PO (dose 10 mg/kg) (AUC/D) (h*mg/mL): 115

## [2H]C([2H])(Oc1nc(N2CCOC[C@H]3[C@H](F)[C@H]32)c2cnc(-c3cc(N)cc4ccc(F)c(C#C)c34)c(F)c2n1)[C@@]12CCCN1C[C@H](F)C2 [Example 87, 5-Ethynyl-6-fluoro-4-(8-fluoro-4-((1S,7S,8S)-8-fluoro-5-oxa-2-azabicyclo[5.1.0]octan-2-yl)-2-(((2R,7aS)-2-fluorotetrahydro-1H-pyrrolizin-7a(5H)-yl)methoxy-d2)pyrido[4,3-d]pyrimidin-7-yl)naphthalen-2-amine]
[1]
  IC50: 9.92 nM
[2]
  IC50: 60 nM
[3]
  IV (dose 2 mg/kg) (AUC/D) (h*mg/mL): 494
[3]; oral, dose 30 mg/kg
  PO (AUC/D) (h*mg/mL), dose 30 mg/kg: 122
